How the values were obtained:
Format in all cases: functional, cell-based
OVCAR-3 = test: Cytotoxicity against human OVCAR-3 cells after 72 hrs by MTT assay; conditions: OVCAR-3, 72 h
KB = test: Cytotoxicity against human KB cells after 72 hrs by MTT assay
HepG2 = test: Cytotoxicity against human HepG2 cells after 72 hrs by MTT assay; conditions: HepG2, 72 h

CCCCN(CCCC)c1nc2c(ncn2-c2ccccc2)c(=O)n1-c1ccccc1
IC50 (OVCAR-3): 10 µM
IC50 (KB): 9.5 µM
IC50 (HepG2): 20.4 µM

CCCCCN(CCCCC)c1nc2c(ncn2-c2ccccc2)c(=O)n1-c1ccc(Cl)cc1
IC50 (OVCAR-3): > 100 µM
IC50 (KB): 10.6 µM
IC50 (HepG2): > 100 µM

CNc1nc2c(ncn2-c2ccccc2)c(=O)n1-c1ccccc1
IC50 (OVCAR-3): > 100 µM
IC50 (KB): > 100 µM
IC50 (HepG2): > 100 µM

CCNc1nc2c(ncn2-c2ccccc2)c(=O)n1-c1ccccc1
IC50 (OVCAR-3): > 100 µM
IC50 (KB): > 100 µM
IC50 (HepG2): > 100 µM

CNc1nc2c(ncn2-c2ccccc2)c(=O)n1-c1ccc(Cl)cc1
IC50 (OVCAR-3): > 100 µM
IC50 (KB): > 100 µM
IC50 (HepG2): > 100 µM

CCCCNc1nc2c(ncn2-c2ccccc2)c(=O)n1-c1ccc(Cl)cc1
IC50 (OVCAR-3): 94.8 µM
IC50 (KB): 37.7 µM
IC50 (HepG2): 77.6 µM

CC(C)N(c1nc2c(ncn2-c2ccccc2)c(=O)n1-c1ccccc1)C(C)C
IC50 (OVCAR-3): > 100 µM
IC50 (KB): 53.5 µM
IC50 (HepG2): > 100 µM

CN(C)c1nc2c(ncn2-c2ccccc2)c(=O)n1-c1ccccc1
IC50 (OVCAR-3): > 100 µM
IC50 (KB): 83.8 µM
IC50 (HepG2): > 100 µM

O=c1c2ncn(-c3ccccc3)c2nc(NCc2ccccc2)n1-c1ccc(Cl)cc1
IC50 (OVCAR-3): 46.7 µM
IC50 (KB): 34.3 µM
IC50 (HepG2): 62.1 µM

O=c1c2ncn(-c3ccccc3)c2nc(N2CCCCC2)n1-c1ccc(Cl)cc1
IC50 (OVCAR-3): > 100 µM
IC50 (KB): 72.8 µM
IC50 (HepG2): > 100 µM

Reference: ChEMBL document CHEMBL1143317, “Efficient synthesis and biological evaluation of 1,2,9-trisubstituted 1,9-dihydro-6H-purin-6-ones” (Bioorg Med Chem Lett, 2009)
